Values joined by “and” are separate entries in the source; they are usually repeats but may differ in a detail not shown here. Equal values may be shown once.
System: 186277-243-T-J2-PDC complex spheroids, viability
Experiment: Anticancer human tumor 186277-243-T-J2-PDC patient-derived colon adenocarcinoma cell line growth inhibition [RAS]
Details: for viability, T/C: stronger effect = lower value
In short: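 Multi-cell-type spheroids: tumor cells plus HUVEC endothelial cells and mesenchymal stem cells. RAS-pathway inhibitors were combined with targeted agents, each dosed in half-log steps down from clinical Cmax, or from 10 microM when Cmax was unknown.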

[1] = curve of first compound, second compound 0.0316 µM
[2] = curve of first compound, second compound 0.1 µM
[3] = curve of first compound, second compound 0.316 µM
[4] = curve of first compound, second compound 1 µM
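Note: spheroids exposed to compounds for 7 days before viability read.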

Question: Which results are given for `CCc1c2c(nc3ccc(O)cc13)-c1cc3c(c(=O)n1C2)COC(=O)[C@]3(O)CC` + C=CC(=O)N1CCN(c2nc(OCC3CCCN3C)nc3c(F)c(-c4nc(N)cc(C)c4C(F)(F)F)c(Cl)cc23)C(C)C1?
Answer: IC50 (curve of first compound, second compound 0.00316 µM): 18 nM; IC50 (curve of first compound, second compound 0.01 µM): 15.4 nM; IC50 [1]: 28.9 nM; IC50 [2]: 22.6 nM; IC50 [3]: 26.2 nM; IC50 [4]: 27.5 nM; viability, T/C (second compound 0.00316 µM, first compound 0.000949 µM): 115%; viability, T/C (second compound 0.00316 µM, first compound 0.003 µM): 94.9%; viability, T/C (second compound 0.00316 µM, first compound 0.00949 µM): 61.3%; viability, T/C (second compound 0.00316 µM, first compound 0.03 µM): 40.9%; viability, T/C (second compound 0.00316 µM, first compound 0.0949 µM): 22.4%; viability, T/C (second compound 0.00316 µM, first compound 0.3 µM): 14.9%; viability, T/C (second compound 0.01 µM, first compound 0.000949 µM): 120%; viability, T/C (second compound 0.01 µM, first compound 0.003 µM): 87.5%; viability, T/C (second compound 0.01 µM, first compound 0.00949 µM): 55%; viability, T/C (second compound 0.01 µM, first compound 0.03 µM): 40.1%; viability, T/C (second compound 0.01 µM, first compound 0.0949 µM): 25.7%; viability, T/C (second compound 0.01 µM, first compound 0.3 µM): 14.2%; viability, T/C (second compound 0.0316 µM, first compound 0.000949 µM): 110%; viability, T/C (second compound 0.0316 µM, first compound 0.003 µM): 95.6%; viability, T/C (second compound 0.0316 µM, first compound 0.00949 µM): 68.7%; viability, T/C (second compound 0.0316 µM, first compound 0.03 µM): 56.6%; viability, T/C (second compound 0.0316 µM, first compound 0.0949 µM): 21.8%; viability, T/C (second compound 0.0316 µM, first compound 0.3 µM): 15.6%; viability, T/C (second compound 0.1 µM, first compound 0.000949 µM): 109%; viability, T/C (second compound 0.1 µM, first compound 0.003 µM): 98.1%; viability, T/C (second compound 0.1 µM, first compound 0.00949 µM): 68.7%; viability, T/C (second compound 0.1 µM, first compound 0.03 µM): 46%; viability, T/C (second compound 0.1 µM, first compound 0.0949 µM): 20.3%; viability, T/C (second compound 0.1 µM, first compound 0.3 µM): 13.7%; viability, T/C (second compound 0.316 µM, first compound 0.000949 µM): 89.2%; viability, T/C (second compound 0.316 µM, first compound 0.003 µM): 91.9%; viability, T/C (second compound 0.316 µM, first compound 0.00949 µM): 65.5%; viability, T/C (second compound 0.316 µM, first compound 0.03 µM): 51%; viability, T/C (second compound 0.316 µM, first compound 0.0949 µM): 24.5%; viability, T/C (second compound 0.316 µM, first compound 0.3 µM): 17.4%; viability, T/C (second compound 1 µM, first compound 0.000949 µM): 93.2%; viability, T/C (second compound 1 µM, first compound 0.003 µM): 76.1%; viability, T/C (second compound 1 µM, first compound 0.00949 µM): 73%; viability, T/C (second compound 1 µM, first compound 0.03 µM): 47.1%; viability, T/C (second compound 1 µM, first compound 0.0949 µM): 29%; viability, T/C (second compound 1 µM, first compound 0.3 µM): 17.5%

Question: `CCN1CCN(Cc2ccc(Nc3ncc(F)c(-c4cc(F)c5nc(C)n(C(C)C)c5c4)n3)nc2)CC1` + C#Cc1c(F)ccc2cc(O)cc(-c3ncc4c(N5CC6CCC(C5)N6)nc(OCC56CCCN5CC(F)C6)nc4c3F)c12 was tested. Which IC50 [1] did it give?
Answer: The IC50 was 281 nM.

Question: What about the IC50 [2] of the same molecule?
Answer: Its IC50 is 14.9 nM.

Question: And the IC50 [3]?
Answer: Its IC50 is < 3.16 nM.

Question: What about the IC50 [4] of the same molecule?
Answer: The IC50 was < 3.16 nM.

Question: And the IC50 (curve of first compound, second compound 3.16 µM)?
Answer: The IC50 was < 3.16 nM.

Question: And the IC50 (curve of first compound, second compound 10 µM)?
Answer: The IC50 was < 3.16 nM.

Question: And the viability, T/C (second compound 0.0316 µM, first compound 0.00316 µM)?
Answer: The viability, T/C was 84.9%.

Question: What about the viability, T/C (second compound 0.0316 µM, first compound 0.01 µM) of the same molecule?
Answer: The viability, T/C was 69.9%.

Question: And the viability, T/C (second compound 0.0316 µM, first compound 0.0316 µM)?
Answer: Its viability, T/C is 66.7%.

Question: And the viability, T/C (second compound 0.0316 µM, first compound 0.1 µM)?
Answer: Its viability, T/C is 67.2%.

Question: And the viability, T/C (second compound 0.0316 µM, first compound 0.316 µM)?
Answer: The viability, T/C was 49.2%.

Question: And the viability, T/C (second compound 0.0316 µM, first compound 1 µM)?
Answer: The viability, T/C was 22%.

Question: And the viability, T/C (second compound 0.1 µM, first compound 0.00316 µM)?
Answer: Its viability, T/C is 65%.

Question: And the viability, T/C (second compound 0.1 µM, first compound 0.01 µM)?
Answer: Its viability, T/C is 55.3%.

Question: And the viability, T/C (second compound 0.1 µM, first compound 0.0316 µM)?
Answer: Its viability, T/C is 41.7%.

Question: And the viability, T/C (second compound 0.1 µM, first compound 0.1 µM)?
Answer: Its viability, T/C is 31.1%.

Question: And the viability, T/C (second compound 0.1 µM, first compound 0.316 µM)?
Answer: Its viability, T/C is 24%.

Question: And the viability, T/C (second compound 0.1 µM, first compound 1 µM)?
Answer: Its viability, T/C is 16.7%.

Question: And the viability, T/C (second compound 0.316 µM, first compound 0.00316 µM)?
Answer: Its viability, T/C is 28.9%.

Question: And the viability, T/C (second compound 0.316 µM, first compound 0.01 µM)?
Answer: The viability, T/C was 25.2%.

Question: What about the viability, T/C (second compound 0.316 µM, first compound 0.0316 µM) of the same molecule?
Answer: The viability, T/C was 21.7%.

Question: What about the viability, T/C (second compound 0.316 µM, first compound 0.1 µM) of the same molecule?
Answer: The viability, T/C was 16.6%.

Question: And the viability, T/C (second compound 0.316 µM, first compound 0.316 µM)?
Answer: Its viability, T/C is 16.9%.

Question: And the viability, T/C (second compound 0.316 µM, first compound 1 µM)?
Answer: Its viability, T/C is 13.1%.

Question: What about the viability, T/C (second compound 1 µM, first compound 0.00316 µM) of the same molecule?
Answer: The viability, T/C was 13.1%.

Question: And the viability, T/C (second compound 1 µM, first compound 0.01 µM)?
Answer: The viability, T/C was 16.7%.

Question: And the viability, T/C (second compound 1 µM, first compound 0.0316 µM)?
Answer: Its viability, T/C is 14.2%.

Question: What about the viability, T/C (second compound 1 µM, first compound 0.1 µM) of the same molecule?
Answer: Its viability, T/C is 11.6%.

Question: What about the viability, T/C (second compound 1 µM, first compound 0.316 µM) of the same molecule?
Answer: Its viability, T/C is 15.6%.

Question: And the viability, T/C (second compound 1 µM, first compound 1 µM)?
Answer: The viability, T/C was 11.4%.

Question: And the viability, T/C (second compound 3.16 µM, first compound 0.00316 µM)?
Answer: Its viability, T/C is 12.8%.

Question: And the viability, T/C (second compound 3.16 µM, first compound 0.01 µM)?
Answer: Its viability, T/C is 10.5%.

Question: And the viability, T/C (second compound 3.16 µM, first compound 0.0316 µM)?
Answer: The viability, T/C was 9.68%.

Question: And the viability, T/C (second compound 3.16 µM, first compound 0.1 µM)?
Answer: The viability, T/C was 10.6%.

Question: What about the viability, T/C (second compound 3.16 µM, first compound 0.316 µM) of the same molecule?
Answer: Its viability, T/C is 11.5%.

Question: And the viability, T/C (second compound 3.16 µM, first compound 1 µM)?
Answer: The viability, T/C was 10.6%.

Question: And the viability, T/C (second compound 10 µM, first compound 0.00316 µM)?
Answer: Its viability, T/C is 10.4%.

Question: And the viability, T/C (second compound 10 µM, first compound 0.01 µM)?
Answer: The viability, T/C was 8.81%.

Question: What about the viability, T/C (second compound 10 µM, first compound 0.0316 µM) of the same molecule?
Answer: The viability, T/C was 10.7%.

Question: And the viability, T/C (second compound 10 µM, first compound 0.1 µM)?
Answer: Its viability, T/C is 9.4%.

Question: What about the viability, T/C (second compound 10 µM, first compound 0.316 µM) of the same molecule?
Answer: Its viability, T/C is 9.61%.

Question: And the viability, T/C (second compound 10 µM, first compound 1 µM)?
Answer: Its viability, T/C is 7.42%.

Question: For `C=CC(=O)Nc1cc(Nc2nccc(-c3cn(C)c4ccccc34)n2)c(OC)cc1N(C)CCN(C)C`, which viability, T/C (compound 0.00316 µM) is on record?
Answer: The viability, T/C was 91.2% [middle of 4 runs].

Question: And the viability, T/C (compound 0.0316 µM)?
Answer: The viability, T/C was 93.3% [middle of 4 runs].

Question: What about the viability, T/C (compound 0.1 µM) of the same molecule?
Answer: Its viability, T/C is 99.4% [middle of 4 runs].

Question: And the viability, T/C (compound 0.316 µM)?
Answer: The viability, T/C was 94.8% [middle of 4 runs].

Question: What about the IC50 (curve of compound) of the same molecule?
Answer: Its IC50 is > 1000 nM.

Question: What does the source list for `NC1c2ccccc2OC12CCN(c1cnc3c(N4CCCc5ncccc54)n[nH]c3n1)CC2` (stereo not drawn)?
Answer: viability, T/C (compound 0.316 µM): 99.6% [middle of 4 runs]; viability, T/C (compound 10 µM): 73.3% [middle of 4 runs]; IC50 (curve of compound): > 10000 nM

Question: `CC1(C)CCC(Nc2ncc(C(F)(F)F)c(-c3c[nH]c4c(P(C)(C)=O)c(C#N)ccc34)n2)CN1` (stereo not drawn) was tested. Which viability, T/C (compound 0.000949 µM) did it give?
Answer: Its viability, T/C is 89.9% [middle of 4 runs].

Question: And the viability, T/C (compound 0.003 µM)?
Answer: The viability, T/C was 102% and 101% (2×) and 97%.

Question: What about the viability, T/C (compound 0.00949 µM) of the same molecule?
Answer: Its viability, T/C is 99.2% [middle of 4 runs].

Question: What about the viability, T/C (compound 0.0949 µM) of the same molecule?
Answer: Its viability, T/C is 60.8% and 56.4% (2×) and 71.4%.

Question: What about the viability, T/C (compound 0.3 µM) of the same molecule?
Answer: The viability, T/C was 63.9% [middle of 4 runs].

Question: And the IC50 (curve of compound)?
Answer: The IC50 was > 300 nM and 287 nM and 197 nM.

From PubChem BioAssay AID2060908 (Molecular Pharmacology Branch, DTP, NCI, 2025)
